Values after ≈ are worked out from the molar mass of the structure shown.
Columns and labels:
[1] = system: M6; assay: MIC, microdilution broth method; format: cell-based
[2] = system: PA01; assay: MIC, microdilution broth method; format: cell-based, Pseudomonas aeruginosa
[3] = system: multidrug resistant strains; assay: Reserpine growth assay in several multidrug resistant strains (FIG. 27); format: cell-based; conditions: compared to ML-83-009 or levofloxacin
Procedure: Reserpine was added at a final concentration of 10 μg/mL (made up at 40 μg/mL in TSB, 50 μL per well). The bacteria were added at an OD of 0.01 in TSB (100 μL/well). The plate was a normal clear plate as used for MICs. OD was read every 30 minutes for 9 hours (the literature states 7 hours, but this is strain-dependent).

[4] = system: EMRSA15; assay: MIC, microdilution broth method; format: cell-based, Staphylococcus aureus
[5] = system: VSE775; assay: MIC, microdilution broth method; format: cell-based, Enterococcus faecalis; design: MIC, VSE775: unit not given beside the values
[6] = system: Ab17978; assay: MIC, microdilution broth method; format: cell-based
[7] = ESKAPE panel, Gram-negative, in µg/mL

## Cc1cc(C)nc(N[C@@H]2CCN(c3c(F)cc4c(=O)c(C(=O)O)cn5c4c3OC[C@@H]5C)C2)n1 [KSN-BL7, (S)-10-((R)-3-((4,6-dimethylpyrimidin-2-yl)amino)pyrrolidin-1-yl)-9-fluoro-3-methyl-7-oxo-2,3-dihydro-7H-[1,4]oxazino[2,3,4-ij]quinoline-6-carboxylic acid]
[1]; [7]
  MIC, M6: 2
[1]; Klebsiella pneumoniae
  MIC: 2 µg/mL (≈ 4.41 µM)
[2]; [7]
  MIC, PA01: 8
[2]; Pseudomonas aeruginosa
  MIC: 8 µg/mL (≈ 17.6 µM)
[3]
  efflux from the bacteria (reserpine growth assay): reduced efflux
[4]; EMRSA15 (Table 16, role of the terminal pyrimidine ring), in µg/mL
  MIC, EMRSA15: 0.125-0.25
[4]; ESKAPE panel, Gram-positive
  MIC, EMRSA15: 0.125-
[4]; Staphylococcus aureus
  MIC: 0.125 µg/mL (≈ 0.276 µM)
[5]; ESKAPE panel, Gram-positive
  MIC, VSE775: 0.0625
[5]; Enterococcus faecalis
  MIC: 0.06 µg/mL (≈ 0.132 µM)
[6]; Acinetobacter baumannii
  MIC: ≤ 0.125 µg/mL
[6]; [7]
  MIC, Ab17978: ≤0.125

— patent publication US11746116B2, “Antibiotic resistance breakers” (KING'S COLLEGE LONDON, priority 2017, dated 2023)
